# Experimental data taken from paper PMC7274078, “Brain Endothelial Cells Regulate Glucagon-Like Peptide 1 Entry Into the Brain via a Receptor-Mediated Process” (Frontiers in Physiology, 2020).
# Legend:
# [1] = system: Rat brain microvascular endothelial cells (RBMECs); experiment: Endothelial cell uptake of GLP-1-FAM; format: cell-based; settings: pre-treatment 30 min with exendin 9-39 10 nM or H89 10 μM; GLP-1-FAM 10, 100 or 1,000 pM for 3 min at 37°C; n = 3, p < 0.01 vs vehicle
# Description: Rat brain microvascular endothelial cells (RBMECs; Cell Applications, San Diego, CA, United States) were cultured on a cover slip in rat brain endothelial cell growth medium. After reaching confluency, cells were pre-treated with vehicle (PSS buffer), exendin 9-39 (10 nM) or H89 (Sigma-Aldrich, St. Louis, MO, United States) (10 μM) for 30 min or forskolin (Sigma-Aldrich, St. Louis, MO, United States) (10 μM) for 5 min. Cells were then incubated with GLP-1-FAM at either 10, 100 or 1,000 pM for 3 min at 37°C. DAPI was used to stain the nucleus. After fixation and washing three times with cold TBST (5 min each time), cell images were captured using confocal microscope and fluorescence intensity measured using ImageJ software^1. FAM signal from surface binding of FAM was examined by incubating cells with GLP-1-FAM at 4 or 37°C for 3 min, or free FAM (10, 100, and 1,000 pM) at 37°C for 3 min.
# FIGURE 5 GLP-1 uptake by RBMECs is GLP-1 receptor and PKA dependent. RBMECs were pretreated with vehicle (PSS buffer, A,E,I), Exendin 9-39 (10 nM, B,F,J) or H89 (10 μM, C,G,K) for 30 min. Cells were then incubated with GLP-1-FAM at 10, 100 pM or 1 nM for 3 min. DAPI was used to stain the nucleus. Images were captured using confocal microscope. Fluorescence density was analyzed using ImageJ. (D,H,L) Quantitative analysis (n = 3, *p < 0.01, vs. vehicle, Student’s t test). GLP-1R – GLP-1 receptor.
# FIGURE 6 cAMP agonist increases GLP-1 uptake by RBMECs. (A) RBMECs were incubated with GLP-1-FAM at 10 pM for 3 min with or without 10 μM forskolin. DAPI was used to stain the nucleus. Images was captured using confocal microscope. Fluorescence density was analyzed using ImageJ. (B) quantitative analysis of the images (n = 6, *p < 0.05, vs. vehicle, Student’s t test).
# [2] = system: RBMEC and astrocyte barrier; experiment: Trans-endothelial GLP-1 transport (Transwell artificial BBB); format: in vitro ADME, rat; settings: exendin-(9-39) 100 nM, 10 min pre-treatment and during transport; GLP-1-FAM 100 pM; n = 7, p < 0.01
# Description: The trans-endothelial GLP-1 transport was examined using a Transwell system that mimics the BBB in that RBMECs were co-cultured with astrocytes as illustrated in Figure 7A and previously described ([Gaillard et al., 2001]). Briefly, astrocytes (Thermo Fisher Scientific, Waltham, MA, United States) were seeded on the bottom and RBMECs were then seeded onto the top of the Transwell insert (6.5 mm diameter, 1 μm pore size, polyester membrane; Corning, Corning, NY, United States). Trans-endothelial electrical resistance was monitored using a volt-ohmmeter (EVOM; WPI, Sarasota, FL, United States) and EndOhm chamber (EndOhm; WPI). When the trans-endothelial electrical resistance reached its peak, the insert with double cell layers was washed twice at 37°C with PBS buffer. […] The amount of GLP-1-FAM or inulin-FITC transported to the lower chamber was determined by measuring FAM and FITC fluorescence in the lower chamber at 5, 10, and 30 min. Inulin-FITC transport was used to correct for paracellular transport and the amount of trans-endothelial transport of GLP-1-FAM was calculated using the formula:
# Transcellular transport (%)=Fluorescence [FAM]/Reference [FAM]×100−Fluorescence [FITC]/Reference [FITC]×100
# Reference refers to fluorescence in the lower chamber at the specified time point when the Transwell inserts had no cells seeded. To determine if this trans-endothelial transport is dose-dependent, 10, 100, and 1,000 pM GLP-1-FAM or inulin-FITC (with DDP-4 inhibitor) was loaded into the upper chamber, the amount of GLP-1-FAM or inulin-FITC in the lower chamber was determined at 10 min, and trans-endothelial transport of GLP-1 was calculated.
# FIGURE 7 Trans-endothelial transport of GLP-1 is a GLP-1 receptor-mediated process. […] GLP-1-FAM or inulin-FITC transport to the lower chamber was determined by measuring FAM and FITC fluorescence in the lower chamber. […]
# GLP-1 receptor = biological target: T1, GLP-1 receptor (Rattus norvegicus, UniProt P32301); experiment: Effect of GLP-1 receptor antagonist infusion on brain uptake of labeled GLP-1 or exendin-4; format: in vivo; settings: exendin-(9-39) 30 nmol/kg/min for 20 min
# T1 construct: from tissue; host or cells: live rat; brain regions (cerebellum, cortex, hippocampus, hypothalamus, brain stem) and brain microvasculature
# T1 sequence (P32301 22-463): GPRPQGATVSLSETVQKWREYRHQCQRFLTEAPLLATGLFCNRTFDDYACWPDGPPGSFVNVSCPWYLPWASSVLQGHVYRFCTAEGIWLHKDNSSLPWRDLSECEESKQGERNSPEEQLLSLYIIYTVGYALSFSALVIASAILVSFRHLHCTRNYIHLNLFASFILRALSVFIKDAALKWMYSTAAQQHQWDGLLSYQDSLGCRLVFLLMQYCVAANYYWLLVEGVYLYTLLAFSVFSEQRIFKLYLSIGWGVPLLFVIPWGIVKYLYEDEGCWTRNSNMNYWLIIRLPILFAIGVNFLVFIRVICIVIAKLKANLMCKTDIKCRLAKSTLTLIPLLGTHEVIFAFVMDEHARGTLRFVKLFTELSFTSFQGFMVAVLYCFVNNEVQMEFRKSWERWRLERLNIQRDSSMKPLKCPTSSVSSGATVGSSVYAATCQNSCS
# Description: Rats received a systemic infusion of either saline or exendin-(9-39) (GLP-1 receptor antagonist, 30 nmol/kg/min, Abcam, Cambridge, United Kingdom) via the jugular vein catheter for 20 min (Figure 1A). In the last 10 min, rats also received 30 pmol/kg/min of either GLP-1-FAM (AnaSpec, Fremont, CA, United States) or exendin-4-FAM (AnaSpec, Fremont, CA, United States) together with Dextran-TRITC (Sigma-Aldrich, St. Louis, MO, United States) (70 kD, vascular space marker, 30 pmol/kg/min). […] After collecting plasma samples, rats were sacrificed via anesthetic overdose and various brain regions (cerebellum, cortex, hippocampus, hypothalamus, and brain stem) collected, homogenized and lysed in lysis buffer. Fluorescence from TRITC and FAM were measured in both plasma and brain lysates. Protein concentrations were determined in the brain lysates. Brain uptake of GLP-1-FAM and exendin-4-FAM were calculated using the following formula:
# Tissue fluorescence [FAM]/Tissue weight (μg)−TissueFluorescence [TRITC]/Weight(μg)/PlasmaFluorescence [TRITC]/200(μL)×Plasma Fluorescence [FAM]/200μL
# FIGURE 1 GLP-1 and GLP-1 analog exendin-4 enter various brain regions via GLP-1 receptor-mediated process. (A) Protocol. […]
substance,measurement,setting,value
exendin-(9-39),effect on RBMEC uptake of GLP-1-FAM,[1],blunted
same,effect on trans-endothelial transport of labeled GLP-1,[2],inhibited
same,effect on amount of GLP-1-FAM fluorescence in various brain regions,"GLP-1 receptor; GLP-1-FAM 30 pmol/kg/min in last 10 min, n = 7, p < 0.05",markedly decreased
same,effect on exendin-4-FAM fluorescence in various brain regions,"GLP-1 receptor; exendin-4-FAM 30 pmol/kg/min in last 10 min, n = 6, p < 0.05",almost completely abolished
